Legend:
EOL-1 = experiment: Alamar Blue cell viability assay, EOL-1; format: cell-based; conditions: Homo sapiens, EOL1; EOL-1, Leukemia
Experimental: (§1) The effect of Compound I on cell viability was assessed by Alamar Blue assay of metabolic activity in various cancer cell lines.

SR = experiment: Alamar Blue cell viability assay, SR; format: cell-based; conditions: Homo sapiens, Leukemia
Experimental: as §1

MOLT-3 = experiment: Alamar Blue cell viability assay, MOLT-3; format: cell-based; conditions: Homo sapiens; MOLT-3, Leukemia
Experimental: as §1

MV 4; 11 = experiment: Alamar Blue cell viability assay, MV 4; 11; format: cell-based; conditions: Homo sapiens, MV4-11, 11, Leukemia
Experimental: as §1

SEM cells = experiment: Alamar Blue cell viability assay, SEM; format: cell-based; conditions: Leukemia
Experimental: as §1

A7 = experiment: Alamar Blue cell viability assay, A7; format: cell-based; conditions: A7, Melanoma
Experimental: as §1

NCI-H460 = experiment: Alamar Blue cell viability assay, NCI-H460; format: cell-based; conditions: Homo sapiens; NCI-H460, Lung
Experimental: as §1

THP-1 = experiment: Alamar Blue cell viability assay, THP-1; format: cell-based; conditions: Homo sapiens; THP-1, Leukemia
Experimental: as §1

NCI-H1299 = experiment: Alamar Blue cell viability assay, NCI-H1299; format: cell-based; conditions: Homo sapiens; NCI-H1299, Lung
Experimental: as §1

Jurkat = experiment: Alamar Blue cell viability assay, Jurkat; format: cell-based; conditions: Homo sapiens, Leukemia
Experimental: as §1

Ramos = experiment: Alamar Blue cell viability assay, Ramos; format: cell-based; conditions: Homo sapiens, Lymphoma
Experimental: as §1

RPMI-8226 = experiment: Alamar Blue cell viability assay, RPMI-8226; format: cell-based; conditions: Homo sapiens; RPMI-8226, Myeloma
Experimental: as §1

NCI-H520 = experiment: Alamar Blue cell viability assay, NCI-H520; format: cell-based; conditions: Homo sapiens; NCI-H520, Lung
Experimental: as §1

MIA PaCa-2 = experiment: Alamar Blue cell viability assay, MIA PaCa-2; format: cell-based; conditions: Homo sapiens; MIA PaCa-2, Pancreatic
Experimental: as §1

HL60 = experiment: Alamar Blue cell viability assay, HL60; format: cell-based; conditions: Homo sapiens, HL-60; HL60, Leukemia
Experimental: as §1

MDA-MB-231 = experiment: Alamar Blue cell viability assay, MDA-MB-231; format: cell-based; conditions: Homo sapiens; MDA-MB-231, Breast
Experimental: as §1

BT-474 = experiment: Alamar Blue cell viability assay, BT-474; format: cell-based; conditions: Homo sapiens; BT-474, Breast
Experimental: as §1

Hs 605.T = experiment: Alamar Blue cell viability assay, Hs 605.T; format: cell-based; conditions: Breast
Experimental: as §1

MDA-MB-453 = experiment: Alamar Blue cell viability assay, MDA-MB-453; format: cell-based; conditions: Homo sapiens; MDA-MB-453, Breast
Experimental: as §1

PC-3 = experiment: Alamar Blue cell viability assay, PC-3; format: cell-based; conditions: Homo sapiens; PC-3, Prostate
Experimental: as §1

MDA-MB-361 = experiment: Alamar Blue cell viability assay, MDA-MB-361; format: cell-based; conditions: Homo sapiens; MDA-MB-361, Breast
Experimental: as §1

Saos-2 = experiment: Alamar Blue cell viability assay, Saos-2; format: cell-based; conditions: Homo sapiens; Saos-2, Osteosarcoma
Experimental: as §1

PANC-1 = experiment: Alamar Blue cell viability assay, PANC-1; format: cell-based; conditions: Homo sapiens; PANC-1, Pancreatic
Experimental: as §1

LNCaP = experiment: Alamar Blue cell viability assay, LNCaP; format: cell-based; conditions: Homo sapiens, Prostate
Experimental: as §1

CCD-1058Sk = experiment: Alamar Blue cell viability assay, CCD-1058Sk; format: cell-based; conditions: Normal
Experimental: as §1

CCD-1094Sk = experiment: Alamar Blue cell viability assay, CCD-1094Sk; format: cell-based; conditions: Normal
Experimental: as §1

CCD-1068Sk = experiment: Alamar Blue cell viability assay, CCD-1068Sk; format: cell-based; conditions: Normal
Experimental: as §1

BJ-hTERT = experiment: Alamar Blue cell viability assay, BJ-hTERT; format: cell-based; conditions: Normal
Experimental: as §1

CCD-1096Sk = experiment: Alamar Blue cell viability assay, CCD-1096Sk; format: cell-based; conditions: Normal
Experimental: as §1

[1] = Dose escalation study in patients, toxicity and adverse events; format: in vivo, human
Experimental: Pharmacokinetic studies and dose escalation studies were conducted in adult patients with metastatic, recurrent, locally, advanced, or unresectable solid malignancy (patients with histologically and/or cytologically confirmed solid malignancy), who received prior anti-cancer treatment(s) until disease progression, at 10 different dose levels of Compound I. Groups 1-7 were administered intravenously on days 1 and 8 of a 4-week cycle at 50, 100, 150, 200, 250, 325, and 475 mg/m^2 (lyophilized formulation), respectively. Groups 8-10 were administered intravenously on days 1,8, and 15 of a 4-week cycle at 325, 475, and 650 mg/m^2 (lyophilized formulation), respectively. Each patient received each dose over 1 hour by IV infusion on days described above.

[2] = system: BRCA2 knockout tumor cells; experiment: BRCA2 knockout tumor xenograft model; format: in vivo; conditions: compared with isogenic wild type control cells
normal cells = experiment: Alamar Blue cell viability assay, normal cells; format: cell-based; conditions: compared with cancer cell lines
Experimental: as §1

EC50 (MOLT-3): 6 nM | EC50 (NCI-H460): 38 nM | EC50 (THP-1): 47 nM | EC50 (NCI-H1299): 55 nM | EC50 (Jurkat): 64 nM | EC50 (Ramos): 66 nM | EC50 (RPMI-8226): 68 nM | EC50 (NCI-H520): 70 nM | EC50 (MIA PaCa-2): 74 nM | EC50 (HL60): 83 nM | EC50 (MDA-MB-231): 83 nM | EC50 (BT-474): 86 nM | EC50 (MDA-MB-453): 140 nM | EC50 (PC-3): 1100 nM | EC50 (MDA-MB-361): 2100 nM | EC50 (PANC-1): 5000 nM | EC50 (LNCaP): 5500 nM
SMILES: Cc1cnc(CNC(=O)c2c(=O)c3ccc(N4CCCN(C)CC4)nc3n3c2sc2ccccc23)cn1 [Compound I, 2-(4-Methyl-[1,4]diazepan-1-yl)-5-oxo-5H-7-thia-1,11b-diaza-benzo[c]fluorene-6-carboxylic acid (5-methyl-pyrazin-2-ylmethyl)-amide]
EC50 (EOL-1): 3 nM | EC50 (SR): 5 nM | EC50 (MV 4; 11): 12 nM | EC50 (SEM cells): 18 nM | EC50 (A7): 23 nM | EC50 (Hs 605.T): 116 nM | EC50 (Saos-2): 5000 nM | EC50 (CCD-1058Sk): 4710 nM | EC50 (CCD-1094Sk): 4810 nM | EC50 (CCD-1068Sk): 5070 nM | EC50 (BJ-hTERT): 5170 nM | EC50 (CCD-1096Sk): 5260 nM | Serious adverse events (SAEs) considered related to Compound I ([1]; Groups 1-10): Three | Treatment-related AE: hand-foot syndrome ([1]; Groups 1-10): 23% | Treatment-related AE: headache ([1]; Groups 1-10): 10% | Treatment-related AE: mucositis ([1]; Groups 1-10): 15% | Treatment-related AE: nausea ([1]; Groups 1-10): 44% | Treatment-related AE: photosensitivity of the eyes ([1]; Groups 1-10): 21% | Treatment-related AE: photosensitivity of the skin ([1]; Groups 1-10): 59% | Treatment-related AE: rash ([1]; Groups 1-10): 10% | Dose level toxicity (DLT) ([1]; Groups 1-10, 50 to 650 mg/m^2 IV): No dose level toxicity (DLT) were observed | Treatment-related non-DLT grade 3 photosensitivity events ([1]; in Groups 1, 5, and 8-10, reversible): 5 | Activity in BRCA2 knockout tumor cells in a xenograft model [2]: wide therapeutic index of activity | Activity in normal cells (normal cells): significantly less active

— US20210046071A1, “TETRACYCLIC COMPOUNDS AND THEIR SALTS, COMPOSITIONS, AND METHODS FOR THEIR USE” (Senhwa Biosciences, Inc., priority 2019, published 2021)
